Earlier results, collected in patent US8791152B2, “Stable pharmaceutical composition containing docetaxel and a method of manufacturing the same” (SK Chemicals Co., Ltd., priority 2006, dated 2014).

Solubility in water: almost insoluble in water
Structure (SMILES): CC(=O)O[C@@]12CO[C@@H]1C[C@H](O)[C@@]1(C)C(=O)[C@H](O)C3=C(C)[C@@H](OC(=O)[C@H](O)[C@@H](NC(=O)OC(C)(C)C)c4ccccc4)C[C@@](O)([C@@H](OC(=O)c4ccccc4)[C@H]21)C3(C)C [Docetaxel, docetaxel]
